This is an account of results in patent US4668677A, “4-phenylphthalazine derivatives, their preparation and their use as pharmaceuticals” (Mitsubishi Chemical Industries Limited, priority 1984, dated 1987).

In test [1] the test system is blood platelets. In words: Activity to inhibit the aggregation of blood platelets (collagen, ex vivo after oral administration). The settings on record: Rattus norvegicus, Platelet, po, read-out: Inhibitory rate of blood platelet aggregation. The format is in vivo, rat (male Wistar-ST strain). The procedure:
Male Wistar-ST strain rats of an average body weight of 250 g were used, a group consisting of 8 animals. The test compound indicated in the following Table 1 was orally administered to rats in the form of a suspension in a 1% tragacanth aqueous solution at 4 ml/Kg (the test compound 10 mg/Kg).
One hour after the administration, blood samples were obtained from the carotid artery by means of a cannule. […] Tubes were turned upside-down and then subjected to centrifugation at 200×g over 15 minutes to assign the supernatant as a platelet-rich plasma (PRP). The residue was further centrifuged at […] over 15 minutes to assign the supernatant as a platelet-poor plasma (PPP). These supernatants were applied for determining the ability to aggregate blood platelets. […] As an aggregation inducing agent, collagen (availale from Hormon-chemie A.G.) was used at a concentration of 7 to 10 μg/ml.
Inhibitory rate to aggregate blood platelets was calculated according to the following equation: [formula] A: […] in the group to which the 1% tragacanth solution alone was given (Control)
B: Aggregation rate in the group to which the tragacanth solution of the test compound was given.

The test system of test [2] is blood platelets. In words: Activity to inhibit the blood platelet adhesion (glass bead method). The format is cell-based, rat (male Wistar-ST strain). The settings on record: Rattus norvegicus, read-out: Inhibitory rate of blood platelet adhesion. The procedure:
As experimental animals, there were used male Wistar-ST strain rats of an average body weight of 250 g.
Blood samples were obained from carotid arteries by means of a cannule and immediately admixed with sodium citrate at a volume ratio of 1/10. The mixture was centrifuged at 200×g over 15 minutes to collect the supernatant (platelet-rich plasma: PRP). The PRP was then centrifuged at 2000×g over 15 minutes and the supernatant was removed to give blood platelet pellet.
To the resultant blood platelet pellet was added a 15 mM tris.HCl buffer solution with EDTA (pH 7.4) to resuspend blood platelets therein and then one applied centrifugation at 2000×g over 15 minutes and the supernatant was removed. The resultant washed blood platelets were added to a 0.3 mM tris.HCl buffer solution with CaCl2 (pH 7.4) to resuspend blood platelets therein, whereby there was prepared a blood platelet suspension adjusted to five hundred thousand platelets/μl. To 2 ml of the blood platelet suspension were added 2 μl of a methanolic solution of each test compound and incubation was effected for 15 minutes. Then blood platelet adhesion was determined according to a glass bead method by using a timing blood suction apparatus for determining the blood platelet adhesion.
The number of blood platelets was counted by means of a blood platelet counter.
Inhibitory rate of blood platelet adhesion was calculated according to the following equation: [formula] A: Blood platelet number in the blood platelet suspension passed through a control column
B: Blood platelet number in the blood platelet suspension passed through a bead-packing column

The subject of test [3] is mice. In words: Anti-thrombotic activity: arachidonic acid-induced mortality in mice. The settings on record: for Survival time of dead mice: arachidonic acid 100 mg/Kg i.v.; for Mortality: arachidonic acid 100 mg/Kg i.v. after 1 hour. The format is in vivo, mouse (male ICR-JCL strain). The procedure: Male ICR-JCL strain mice with an average body weight of about 25 g and male New Zealand White rabbits with an average body weight of about 3 Kg were used.
Where mice were used as experimental animals, a suspension of the test compound indicated in Table 3 in a 1% tragacanth aqueous solution was orally administered to animals at 20 ml/Kg. One hour after the administration, an arachidonic acid (PL-biochemical Co., Inc.) solution dissolved in a 0.1M sodium carbonate aqueous solution was intravenously given at 100 mg/Kg. Evaluation of activity was effected with the time from the administration of arachidonic acid up to the death of animals as well as mortality.

The subject of test [4] is PGI2-like substance in vessel walls. In words: Influence on production of PGI2-like substance in vessel walls (ADP aggregation with carotid artery ring). The format is in vivo, rat (male Wistar-ST strain). To be noted: for Aggregation rate with ADP when carotid artery ring added: 1 hour, 10 μM ADP. The protocol:
Male Wistar-ST strain rats with an average weight of about 250 g were used as experimental animals. After fasted for 18 hours, 6.3 ml of blood sample were obtained from corotid artery and immediately thereafter 0.7 ml of an anticoagulant (3.8% sodium citrate) was added and the sample was centrifuged at 200×g over 15 minutes to take platelet-rich plasma (PRP). The same procedures as above were carried out, using 5 to 6 rats, whereby 5-6 ml as normal PRP were stored and employed.
Reference aggregation values were determined by pouring 1 ml each of stored PRP into plastic test tubes, incubating them at 22° C. for 10 minutes and then determining aggregation rate. As an aggregation inducing agent, one employed 10 μM ADP (available from Sigma Co., Inc.)
A suspension of the compound of this invention or aspirin in a 1% aqueous solution of tragacanth was orally given to animals. After 1 hour, 5 mg of carotid artery were cut out in a ring shape and placed into a plastic test tube together with 1 ml of stored PRP. After incubated at 22° C. for 10 minutes, aggregation rate was determined.
Also, non-medicated groups were similarly treated and aggregation rate was determined.
Determination of blood platelet aggregation rate was made by means of an aggregometer.

Test [5] has as its system blood platelet. The settings on record: Drugs, 18, 439 (1979); cited from earlier work.
Test [6] deals with blood flow. The settings on record: Prostaglandins, 25, 549 (1983); cited from earlier work.
Test [7] relates to brain. The settings on record: Am. J. Physiol., 243, H416 (1982); cited from earlier work.

Structures are written as SMILES.

`CC(=O)Oc1ccccc1C(=O)O` [Aspirin, aspirin]: in test [1], the inhibition at 30 mg/kg worked out at 67.5%. In addition, the inhibition at 100 mg/kg in test [1] amounted to 100%. The inhibition at 300 µM in test [2] (3·10^-4 M) was found to be 4%. The inhibition at 30 µM in test [2] (3·10^-5 M) stood at 5.3%. The inhibition at 3 µM in test [2] (3·10^-6 M) was 8.4%. Besides, in test [2] (3·10^-7 M), the inhibition at 0.3 µM was found to be 3.5%. Also, the entries for the “Survival time of dead mice” value in test [3] (100 mg/Kg oral) and in test [3] (300 mg/Kg oral) were 322 ± 103 s and 180 ± 67 s, respectively. Also, the Mortality in test [3] (100 mg/Kg oral) is on record as 100%; in test [3] (300 mg/Kg oral) it was 37.5%. For the same molecule, the “Aggregation rate with ADP when carotid artery ring added” value was 45.7% in test [4] (30 mg/Kg oral) and 58.3% in test [4] (100 mg/Kg oral). Besides, the “inhibition of ADP aggregation with PGI2-like substances existing in carotid artery ring (in words)” value in test [4] (from Table 5) is “said phenomena could not be observed”. In addition, the “activity to inhibit blood platelet aggregation (in words)” value in test [5] is “show the activity to inhibit blood platelet aggregation”. Also, the “activity to increase blood flow (in words)” value in test [6] is given as “does not show at all the activity to increase blood flow”.

`COc1ccc2c(c1)c(CC(=O)O)c(C)n2C(=O)c1ccc(Cl)cc1` [indomethacin]: the “activity to inhibit blood platelet aggregation (in words)” value in test [5] was “show the activity to inhibit blood platelet aggregation”. For the same molecule, the “activity to increase blood flow (in words)” value in test [6] is on record as “does not show at all the activity to increase blood flow”. In addition, the “topical blood flow in brain (in words)” value in test [7] was “did decrease a topical blood flow in brain”.
